Measurements: patent US8822517B2, “Arylosulfonamides for the treatment of CNS diseases” (Adamed SP. Z O.O., priority 2010, dated 2014)

Key:
adrenergic α1 receptor = assay: Binding assay α1 (non-selective), [3H]prazosin, rat cerebral cortex; settings: percent inhibition of control specific binding; compounds tested at 1×10^−6 M
Method in brief: (§1)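 Compounds were screened at 1×10^−6 M, and bound radioactivity was measured by scintillation counting. Specific binding equals total binding minus nonspecific binding obtained with an excess of unlabelled ligand.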

[1] = molecular target: T1, serotonine transporter (SERT) receptor (Homo sapiens, UniProt P31645); assay: Binding assay SERT (h), [3H]imipramine, CHO cells; settings: read-out: SERT [%]
T1 construct: expressed in transfected cells; host or cells: CHO cells
T1 sequence (P31645 whole entry): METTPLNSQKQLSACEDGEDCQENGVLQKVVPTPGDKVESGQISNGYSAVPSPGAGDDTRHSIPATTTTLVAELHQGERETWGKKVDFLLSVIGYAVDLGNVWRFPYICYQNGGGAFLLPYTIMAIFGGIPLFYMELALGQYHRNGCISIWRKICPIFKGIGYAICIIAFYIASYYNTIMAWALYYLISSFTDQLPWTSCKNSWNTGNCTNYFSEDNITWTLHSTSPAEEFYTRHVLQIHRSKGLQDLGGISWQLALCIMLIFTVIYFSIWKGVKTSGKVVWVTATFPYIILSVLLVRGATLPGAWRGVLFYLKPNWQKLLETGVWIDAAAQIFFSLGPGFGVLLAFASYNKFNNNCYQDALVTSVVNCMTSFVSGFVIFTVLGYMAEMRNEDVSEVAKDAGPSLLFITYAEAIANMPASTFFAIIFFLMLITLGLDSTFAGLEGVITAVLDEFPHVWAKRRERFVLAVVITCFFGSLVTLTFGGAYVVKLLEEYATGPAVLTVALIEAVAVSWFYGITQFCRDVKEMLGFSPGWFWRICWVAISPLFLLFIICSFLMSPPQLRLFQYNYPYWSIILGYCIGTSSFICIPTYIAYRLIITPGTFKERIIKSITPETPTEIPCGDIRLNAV
Method in brief: as §1

dopaminergic D2 receptor = dopaminergic D2 receptor (Homo sapiens, UniProt P14416); assay: Binding assay D2S (h), [3H]methyl-spiperone, HEK-293 cells; design: expressed in transfected cells; host or cells: HEK-293 cells; settings: read-out: D2 [%]
Sequence of dopaminergic D2 receptor (P14416 1-414 isoform P14416-2): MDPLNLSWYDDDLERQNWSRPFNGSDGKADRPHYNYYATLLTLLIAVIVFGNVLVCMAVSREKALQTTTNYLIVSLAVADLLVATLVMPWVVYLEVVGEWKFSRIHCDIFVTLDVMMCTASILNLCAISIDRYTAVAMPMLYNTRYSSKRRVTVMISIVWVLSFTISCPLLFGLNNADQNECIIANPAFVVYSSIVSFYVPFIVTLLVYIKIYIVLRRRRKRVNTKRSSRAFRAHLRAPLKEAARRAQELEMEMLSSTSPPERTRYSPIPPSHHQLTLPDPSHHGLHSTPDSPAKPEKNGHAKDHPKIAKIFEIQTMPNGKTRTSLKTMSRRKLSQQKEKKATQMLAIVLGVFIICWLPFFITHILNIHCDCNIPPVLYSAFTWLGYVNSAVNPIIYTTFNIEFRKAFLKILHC
Method in brief: as §1

[2] = molecular target: serotoninergic 5-HT7 receptor (Homo sapiens, UniProt P34969); assay: Binding assay 5-HT7 (h), [3H]LSD, CHO cells; design: expressed in transfected cells; host or cells: CHO cells; settings: read-out: 5-HT7
Sequence of serotoninergic 5-HT7 receptor (P34969 whole entry): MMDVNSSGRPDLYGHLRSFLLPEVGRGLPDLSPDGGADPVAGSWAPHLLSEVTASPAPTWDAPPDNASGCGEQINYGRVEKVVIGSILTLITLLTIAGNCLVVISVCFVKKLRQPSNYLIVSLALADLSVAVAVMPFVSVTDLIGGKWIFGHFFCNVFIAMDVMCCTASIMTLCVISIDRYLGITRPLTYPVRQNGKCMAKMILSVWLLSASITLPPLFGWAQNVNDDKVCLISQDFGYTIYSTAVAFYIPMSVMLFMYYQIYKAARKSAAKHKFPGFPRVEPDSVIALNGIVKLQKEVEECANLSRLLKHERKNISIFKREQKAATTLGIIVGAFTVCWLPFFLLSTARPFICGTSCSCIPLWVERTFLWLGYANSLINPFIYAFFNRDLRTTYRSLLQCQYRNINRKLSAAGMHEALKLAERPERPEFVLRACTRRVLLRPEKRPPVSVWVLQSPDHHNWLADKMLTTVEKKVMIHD
Method in brief: as §1

[3] = molecular target: serotoninergic 5-HT6 receptor (Homo sapiens, UniProt P50406); assay: Binding assay 5-HT6 (h), [3H]LSD, CHO cells; design: expressed in transfected cells; host or cells: CHO cells; settings: read-out: 5-HT6
Sequence of serotoninergic 5-HT6 receptor (P50406 whole entry): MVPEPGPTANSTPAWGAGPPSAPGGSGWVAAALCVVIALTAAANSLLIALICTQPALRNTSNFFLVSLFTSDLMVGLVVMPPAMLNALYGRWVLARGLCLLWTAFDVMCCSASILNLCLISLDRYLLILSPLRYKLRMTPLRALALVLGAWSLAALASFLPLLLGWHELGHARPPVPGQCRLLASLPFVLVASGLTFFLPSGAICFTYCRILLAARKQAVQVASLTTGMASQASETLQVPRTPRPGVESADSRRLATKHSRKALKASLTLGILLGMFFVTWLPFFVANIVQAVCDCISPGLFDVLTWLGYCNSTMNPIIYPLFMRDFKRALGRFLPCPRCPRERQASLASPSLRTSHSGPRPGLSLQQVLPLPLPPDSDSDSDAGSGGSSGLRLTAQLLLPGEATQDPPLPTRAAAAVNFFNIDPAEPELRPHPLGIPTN
Method in brief: as §1

[4] = molecular target: serotoninergic 5-HT2A receptor (Homo sapiens, UniProt P28223); assay: Binding assay 5-HT2A (h), [3H]ketanserin, HEK-293 cells; design: expressed in transfected cells; host or cells: HEK-293 cells; settings: read-out: 5-HT2A
Sequence of serotoninergic 5-HT2A receptor (P28223 whole entry): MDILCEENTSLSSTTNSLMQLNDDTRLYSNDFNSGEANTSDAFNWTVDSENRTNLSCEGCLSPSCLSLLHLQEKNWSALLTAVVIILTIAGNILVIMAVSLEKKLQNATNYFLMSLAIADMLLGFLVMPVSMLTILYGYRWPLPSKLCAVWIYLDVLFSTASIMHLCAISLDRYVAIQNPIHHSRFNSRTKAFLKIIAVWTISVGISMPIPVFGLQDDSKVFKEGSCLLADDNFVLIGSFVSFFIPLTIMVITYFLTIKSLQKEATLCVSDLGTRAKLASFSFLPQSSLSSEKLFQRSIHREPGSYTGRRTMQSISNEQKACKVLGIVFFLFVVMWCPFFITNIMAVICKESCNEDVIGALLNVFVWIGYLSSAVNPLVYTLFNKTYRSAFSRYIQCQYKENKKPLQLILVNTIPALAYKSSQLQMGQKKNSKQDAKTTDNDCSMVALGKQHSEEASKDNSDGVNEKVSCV
Method in brief: as §1

dopaminergic D3 receptor = dopaminergic D3 receptor (Homo sapiens, UniProt P35462); assay: Binding assay D3 (h), [3H]methyl-spiperone, CHO cells; design: expressed in transfected cells; host or cells: CHO cells; settings: read-out: D3 [%]
Sequence of dopaminergic D3 receptor (P35462 whole entry): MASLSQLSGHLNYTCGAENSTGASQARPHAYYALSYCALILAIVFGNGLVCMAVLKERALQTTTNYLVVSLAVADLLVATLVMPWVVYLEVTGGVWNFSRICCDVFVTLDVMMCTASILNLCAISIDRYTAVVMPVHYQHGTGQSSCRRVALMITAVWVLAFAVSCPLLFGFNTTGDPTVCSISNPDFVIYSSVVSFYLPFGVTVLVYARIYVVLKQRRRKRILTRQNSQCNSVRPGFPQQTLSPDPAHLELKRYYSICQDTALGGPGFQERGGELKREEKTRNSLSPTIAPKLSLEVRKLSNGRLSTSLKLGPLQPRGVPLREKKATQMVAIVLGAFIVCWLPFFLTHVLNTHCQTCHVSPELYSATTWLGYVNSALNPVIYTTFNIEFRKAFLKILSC
Method in brief: as §1

[5] = molecular target: T2, serotoninergic 5-HT1A receptor (Homo sapiens, UniProt P08908); assay: Binding assay 5-HT1A (h), [3H]8-OH-DPAT, HEK-293 cells; design: expressed in transfected cells; host or cells: HEK-293 cells; settings: read-out: 5-HT1A
T2 sequence (P08908 1-422): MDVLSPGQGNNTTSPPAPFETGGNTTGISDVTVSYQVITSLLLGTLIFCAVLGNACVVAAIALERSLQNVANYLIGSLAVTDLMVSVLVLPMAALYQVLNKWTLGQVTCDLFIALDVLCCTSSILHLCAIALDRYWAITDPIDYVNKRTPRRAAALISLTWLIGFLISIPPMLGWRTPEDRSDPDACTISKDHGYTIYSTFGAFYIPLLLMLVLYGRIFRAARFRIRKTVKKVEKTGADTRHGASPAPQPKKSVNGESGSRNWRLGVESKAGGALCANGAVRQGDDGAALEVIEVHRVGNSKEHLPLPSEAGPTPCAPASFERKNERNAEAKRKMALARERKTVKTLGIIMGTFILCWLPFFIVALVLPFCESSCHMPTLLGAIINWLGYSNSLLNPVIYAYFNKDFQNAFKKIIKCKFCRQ
Method in brief: as §1

SMILES	α1 [%] (adrenergic α1 receptor)	inhibition at 1 µM [1]	inhibition at 1 µM (dopaminergic D2 receptor)	inhibition at 1 µM [2]	inhibition at 1 µM [3]	inhibition at 1 µM [4]	inhibition at 1 µM (dopaminergic D3 receptor)	inhibition at 1 µM [5]
O=S(=O)(NCCCCN1CCN(c2cccc3c2OCCO3)CC1)c1cccc(Br)c1 [Compound 391, 3-Bromo-N-[4-[4-(2,3-dihydro-1,4-benzodioxin-5-yl)piperazin-1-yl]butyl]benzenesulphonamide]	90%	-28%	76%	92%	19%	68%	85%	97%
O=S(=O)(NCCCCN1CCN(c2cccc3c2OCCO3)CC1)c1ccc(F)c(Cl)c1 [Compound 392, 3-Chloro-N-[4-[4-(2,3-dihydro-1,4-benzodioxin-5-yl)piperazin-1-yl]butyl]-4-fluorobenzenesulphonamide]	99%	-11%	57%	91%	7%	64%	93%	100%
O=S(=O)(NCCCCN1CCN(c2cccc3c2OCCO3)CC1)c1cccc(O)c1 [Compound 393, N-[4-[4-(2,3-Dihydro-1,4-benzodioxin-5-yl)piperazin-1-yl]butyl]-3-hydroxybenzenesulphonamide]	91%	-7%	46%	91%	9%	47%	92%	93%
COc1cccc(S(=O)(=O)NCCCCN2CCN(c3cccc4c3OCCO4)CC2)c1 [Compound 394, N-[4-[4-(2,3-Dihydro-1,4-benzodioxin-5-yl)piperazin-1-yl]butyl]-3-methoxybenzenesulphonamide]	92%	12%	72%	98%	18%	71%	86%	95%
Cc1cccc(S(=O)(=O)NCCCCN2CCN(c3cccc4c3OCCO4)CC2)c1 [Compound 395, N-[4-[4-(2,3-Dihydro-1,4-benzodioxin-5-yl)piperazin-1-yl]butyl]-3-methylbenzenesulphonamide]	92%	69%	61%	83%	-35%	61%	87%	75%
O=S(=O)(NCCCCN1CCN(c2cccc3c2OCCO3)CC1)c1ccc(-c2ccccc2)cc1 [Compound 396, N-[4-[4-(2,3-Dihydro-1,4-benzodioxin-5-yl)piperazin-1-yl]butyl]-4-phenylbenzenesulphonamide]	84%	16%	68%	88%	31%	58%	86%	85%
O=S(=O)(NCCCCN1CCN(c2cccc3c2OCCO3)CC1)c1ccc(Cl)s1 [Compound 398, 5-Chloro-N-[4-[4-(2,3-dihydro-1,4-benzodioxin-5-yl)piperazin-1-yl]butyl]thiophene-2-sulphonamide]	97%	-7%	73%	97%	3%	38%	90%	107%
O=S(=O)(NCCCCN1CCN(c2cccc3c2OCCO3)CC1)c1cc2ccccc2s1 [Compound 399, N-[4-[4-(2,3-Dihydro-1,4-benzodioxin-5-yl)piperazin-1-yl]butyl]benzothiophene-2-sulphonamide]	99%	-22%	79%	96%	23%	82%	92%	99%
O=S(=O)(NCCCCN1CCN(c2cccc3c2OCCO3)CC1)c1csc2ccccc12 [Compound 400, N-[4-[4-(2,3-Dihydro-1,4-benzodioxin-5-yl)piperazin-1-yl]butyl]benzothiophene-3-sulphonamide]	94%	30%	83%	95%	9%	66%	88%	100%
O=S(=O)(NCCCCN1CCN(c2cccc3c2OCCO3)CC1)c1cc2ccc(Cl)cc2s1 [Compound 401, 6-Chloro-N-[4-[4-(2,3-dihydro-1,4-benzodioxin-5-yl)piperazin-1-yl]butyl]benzothiophene-2-sulphonamide]	90%	-8%	84%	91%	27%	79%	95%	103%
O=S(=O)(NCCCCN1CCN(c2cccc3c2OCCO3)CC1)c1ccc2cn[nH]c2c1 [Compound 402, N-[4-[4-(2,3-Dihydro-1,4-benzodioxin-5-yl)piperazin-1-yl]butyl]-1H-indazole-6-sulphonamide]	94%	16%	68%	100%	1%	76%	89%	102%
O=c1[nH]c2ccc(S(=O)(=O)NCCCCN3CCN(c4cccc5c4OCCO5)CC3)cc2o1 [Compound 403, N-[4-[4-(2,3-Dihydro-1,4-benzodioxin-5-yl)piperazin-1-yl]butyl]-2-oxo-3H-1,3-benzoxazole-6-sulphonamide]	98%	-9%	85%	95%	-21%	64%	99%	98%
O=S(=O)(NCCCCN1CCN(c2cccc3c2OCCO3)CC1)c1ccc2c(c1)OCO2 [Compound 404, N-[4-[4-(2,3-Dihydro-1,4-benzodioxin-5-yl)piperazin-1-yl]butyl]-1,3-benzodioxole-5-sulphonamide]	93%	-9%	60%	96%	4%	55%	92%	97%
O=S(=O)(NCCCN1CCN(c2cccc3c2OCCO3)CC1)c1cccc2ccccc12 [Compound 405, N-[3-[4-(2,3-Dihydro-1,4-benzodioxin-5-yl)piperazin-1-yl]propyl]naphthalene-1-sulphonamide]	82%	-5%	68%	93%	53%	74%	62%	97%
O=S(=O)(NCCCN1CCN(c2cccc3c2OCCO3)CC1)c1ccc2ccccc2c1 [Compound 406, N-[3-[4-(2,3-Dihydro-1,4-benzodioxin-5-yl)piperazin-1-yl]propyl]naphthalene-2-sulphonamide]	77%	10%	59%	92%	54%	28%	54%	99%
